Results from patent publication US20120122931A1, “INDOLE DERIVATIVE OR PHARMACEUTICALLY ACCEPTABLE SALT THEREOF” (KISSEI PHARMACEUTICAL CO., LTD., priority 2009, published 2012).
Values joined by “and” are separate entries in the source; they are usually repeats but may differ in a detail not shown here. Equal entries are not always repeated.

Each molecule was assayed against T1, rat EP1 receptor (Rattus norvegicus, UniProt P70597) (assay: Test for confirmation of EP1 receptor antagonism: inhibition of prostaglandin E2-induced increase in intracellular calcium concentration (Method A or Method B)). Details: Method B (Calcium kit II Fluo 4, FDSS 7000); rat EP1 receptor-expressing cells; prostaglandin E2 10 nM.
T1 construct: expressed in transfected cells; host or cells: COS-1 cells, transient transfection with Lipofectamine 2000
T1 sequence (P70597 1-405): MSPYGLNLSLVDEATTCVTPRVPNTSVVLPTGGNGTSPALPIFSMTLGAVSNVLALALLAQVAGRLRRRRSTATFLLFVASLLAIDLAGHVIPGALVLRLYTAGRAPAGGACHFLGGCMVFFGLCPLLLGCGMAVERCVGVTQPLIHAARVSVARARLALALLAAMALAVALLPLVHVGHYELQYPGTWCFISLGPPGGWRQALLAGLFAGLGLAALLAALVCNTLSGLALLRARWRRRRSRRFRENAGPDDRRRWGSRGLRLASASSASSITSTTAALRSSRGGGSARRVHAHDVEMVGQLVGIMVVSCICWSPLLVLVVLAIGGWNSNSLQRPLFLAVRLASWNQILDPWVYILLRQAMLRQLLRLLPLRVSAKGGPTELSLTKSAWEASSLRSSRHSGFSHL
Format: cell-based
Description: (1) Preparation of Rat EP1 Expression vector
Using Rat Kidney BD Marathon-Ready cDNA (Nippon Becton Dickinson Company, Ltd.) as a template, a forward primer shown in SEQ ID NO. 1, and a reverse primer shown in SEQ ID NO. 2, a first run of PCR was carried out using KOD-Plus-Ver 2.0 (Toyobo Co., Ltd.). Further, using this amplification product as a template, a forward primer shown in SEQ ID NO. 3, and a reverse primer shown in SEQ ID NO. 4, a second run of PCR was carried out in the same manner. The amplification product obtained by the second run of PCR was incorporated into a vector (pcDNA3.1 D/V5-His-TOPO (registered trademark), Invitrogen Japan K. K.). By a conventional method, the vector containing this amplification product was introduced to E. coli (One Shot TOP10 Competent Cells, Invitrogen Corporation) to transform. This transformed E. coli was cultured in an LB agar medium for one day. After the culture, colonies were selected and cultured in an LB liquid medium containing 50 μg/mL of ampicillin. After the culture, the vector was purified using a QIAprep Spin Miniprep Kit (Qiagen K. K.). The base sequence of the insertion site of this vector (SEQ ID NO. 5) was compared with the rat EP1 base sequence (Ptger1) registered as an accession number NM_013100 in well-known database (NCBI), and as a result, they all matched except for a single base. Further, the amino acid sequence translated by the base sequence completely matched the amino acid sequence of the rat EP1 receptor registered as an NCBI accession number NP_037232. Therefore, it was confirmed that the cloned gene sequence was a base sequence of the rat EP1 receptor and the obtained amino acid sequence was that of the rat EP1 receptor. The pcDNA3.1 D/V5-His-TOPO (registered trademark) to which the nucleic acid shown in SEQ ID NO. 5 had been inserted was taken as a rat EP1-expressing vector.
(2) Preparation of Rat EP1 Receptor-Expressing Cells
COS-1 cells (Dainippon Sumitomo Pharma Co., Ltd.) were cultured until it reached confluence in an incubator at 37° C. under a 5% CO2 gas condition, using a D-MEM liquid medium (high glucose and L-glutamine contained, Invitrogen Corporation) to which a penicillin-streptomycin solution (Invitrogen Corporation, final concentration: 100 U/mL as benzylpenicillin; 100 μg/mL as streptomycin) as an antibiotic, MEM nonessential amino acids (Invitrogen Corporation, final Concentration: 0.1 mM), and fetal calf serum (Sanko Junyaku Co., Ltd., final concentration: 10%) were added.
(2-2) COS-1 Cell Subculture
The cells that had reached confluence were stripped with 0.05% trypsin/0.53 mM EDTA 4Na (Invitrogen Japan K. K.) and resuspended in the above liquid medium. The resuspended cells were diluted and cultured in the above liquid medium at a spread ratio from 1:4 to 1:8.
(2-3) Preparation of Cells for Introduction of Rat EP1-Expressing Vector
The cells that had reached confluence were stripped with 0.05% trypsin/0.53 mM EDTA.4Na, and resuspended in a D-MEM liquid medium (high glucose and L-glutamine contained, Invitrogen Corporation) to which an MEM nonessential amino acid (final concentration: 0.1 mM) and fetal calf serum (final concentration: 10%) were added. In each well of a Poly D-lysine-coated 96-well microplate (BD BioCoat (registered trademark), Nippon Becton Dickinson Company, Ltd.), this resuspended cell suspension culture was prepared to be 5×10^4 cells/well in 100 μL of the liquid medium, and seeded thereon. After seeding, the cells were cultured in an incubator at 37° C. under a 5% CO2 gas condition. At a point when the cells for introduction of a rat EP1-expressing vector were adhered (about 2 hours after seeding), introduction of the rat EP1-expressing vector was carried out in the following order.
(2-4) Introduction of Rat EP1-Expressing Vector
For introduction of the rat EP1-expressing vector, Lipofectamine 2000 (Invitrogen Japan K. K.) was used. […]

First: O=C(O)c1cccc(Cc2c(-c3ccccc3)[nH]c3cc(C4CC4)c(F)cc23)n1 [Example 16-68, 6-(6-cyclopropyl-5-fluoro-2-phenyl-1H-indol-3-ylmethyl)pyridine-2-carboxylic acid]
Second: O=C(O)c1cccc(Cc2c(-c3cccnc3)[nH]c3cc(C4CC4)c(F)cc23)n1 [Example 16-76, 6-(6-cyclopropyl-5-fluoro-2-pyridine-3-yl-1H-indol-3-ylmethyl)pyridine-2-carboxylic acid]
The IC50 of the first is 1.7-fold higher: 0.034 µM for the first, 0.02 µM for the second. The second is the more potent here.

`O=C(O)c1cccc(Cc2c(-c3ccccc3)[nH]c3cc(OC(F)F)ccc23)n1` [Example 16-73] and `COc1cc2c(Cc3cccc(C(=O)O)n3)c(-c3ccccc3)[nH]c2cc1C` [Example 16-78, 6-(5-methoxy-6-methyl-2-phenyl-1H-indol-3-ylmethyl)pyridine-2-carboxylic acid] are within 1.5-fold of each other in IC50: 0.023 µM for the first, 0.024 µM for the second.

First: O=C(O)c1cccc(Cc2c(-c3ccc(F)cc3)[nH]c3cc(C4CC4)c(F)cc23)n1 [Example 16-74, 6-[6-cyclopropyl-5-fluoro-2-(4-fluorophenyl)-1H-indol-3-ylmethyl]pyridine-2-carboxylic acid]
Second: O=C(O)c1cccc(Cc2c(-c3ccsc3)[nH]c3cc(C4CC4)c(F)cc23)n1 [Example 16-75, 6-(6-cyclopropyl-5-fluoro-2-thiophen-3-yl-1H-indol-3-ylmethyl)pyridine-2-carboxylic acid]
The IC50 of the first is 2.9-fold higher: 0.047 µM for the first, 0.016 µM for the second.

Going from `CCOc1cc2[nH]c(-c3ccsc3)c(Cc3cccc(C(=O)O)n3)c2cc1F` [Example 16-79, 6-(6-ethoxy-5-fluoro-2-thiophen-3-yl-1H-indol-3-ylmethyl)pyridine-2-carboxylic acid] to `CCOc1cc2[nH]c(-c3ccsc3)c(Cc3cccc(C(=O)O)n3)c2cc1C` [Example 16-93, 6-(6-ethoxy-5-methyl-2-thiophen-3-yl-1H-indol-3-ylmethyl)pyridine-2-carboxylic acid], the IC50 rises from 0.022 µM to 0.046 µM (2.1-fold). The first is the more potent here.

`CCOc1cc2[nH]c(-c3ccccc3)c(Cc3cccc(C(=O)O)n3)c2cc1C` [Example 16-84, 6-(6-ethoxy-5-methyl-2-phenyl-1H-indol-3-ylmethyl)pyridine-2-carboxylic acid] and `COc1cc2[nH]c(-c3ccc(F)cc3)c(Cc3cccc(C(=O)O)n3)c2cc1C` [Example 16-85, 6-[2-(4-fluorophenyl)-6-methoxy-5-methyl-1H-indol-3-ylmethyl]pyridine-2-carboxylic acid] are within 1.5-fold of each other in IC50: 0.017 µM for the first, 0.018 µM for the second.

`COc1cc2c(Cc3cccc(C(=O)O)n3)c(-c3ccsc3)[nH]c2cc1Cl` [Example 16-86, 6-(6-chloro-5-methoxy-2-thiophen-3-yl-1H-indol-3-ylmethyl)pyridine-2-carboxylic acid] and `COc1cc2c(Cc3cccc(C(=O)O)n3)c(-c3ccsc3)[nH]c2cc1C` [Example 16-108, 6-(5-methoxy-6-methyl-2-thiophen-3-yl-1H-indol-3-ylmethyl)pyridine-2-carboxylic acid] are within 1.5-fold of each other in IC50: 0.018 µM for the first, 0.019 µM for the second.

`COc1cc2[nH]c(C(C)(C)C)c(Cc3cccc(C(=O)O)n3)c2cc1Cl` [Example 16-89, 6-(2-tert-butyl-5-chloro-6-methoxy-1H-indol-3-ylmethyl)pyridine-2-carboxylic acid] and `COc1cc2[nH]c(C(C)(C)C)c(Cc3cccc(C(=O)O)n3)c2cc1F` [Example 16-97, 6-(2-tert-butyl-5-fluoro-6-methoxy-1H-indol-3-ylmethyl)pyridine-2-carboxylic acid] are within 1.5-fold of each other in IC50: 0.022 µM for the first, 0.032 µM for the second.

Compared with `Cc1cc2c(Cc3cccc(C(=O)O)n3)c(-c3ccsc3)[nH]c2cc1Cl` [Example 16-92, 6-(6-chloro-5-methyl-2-thiophen-3-yl-1H-indol-3-ylmethyl)pyridine-2-carboxylic acid], `Cc1cc2c(Cc3cccc(C(=O)O)n3)c(-c3ccsc3)[nH]c2cc1C1CC1` [Example 16-102, 6-(6-cyclopropyl-5-methyl-2-thiophen-3-yl-1H-indol-3-ylmethyl)pyridine-2-carboxylic acid] is 1.6-fold higher in IC50: 0.03 µM for the first, 0.049 µM for the second.

`COc1cc2[nH]c(C(C)(C)C)c(Cc3cccc(C(=O)O)n3)c2cc1C` [Example 16-98, 6-(2-tert-butyl-6-methoxy-5-methyl-1H-indol-3-ylmethyl)pyridine-2-carboxylic acid] and `COc1cc2[nH]c(C(C)C)c(Cc3cccc(C(=O)O)n3)c2cc1Cl` [Example 16-109, 6-(5-chloro-2-isopropyl-6-methoxy-1H-indol-3-ylmethyl)pyridine-2-carboxylic acid] are within 1.5-fold of each other in IC50: 0.047 µM for the first, 0.035 µM for the second.

Compared with `COc1cc2c(Cc3cccc(C(=O)O)n3)c(-c3ccoc3)[nH]c2cc1Cl` [Example 16-105, 6-(6-chloro-2-furan-3-yl-5-methoxy-1H-indol-3-ylmethyl)pyridine-2-carboxylic acid], `CCC(C)c1[nH]c2cc(OC)c(Cl)cc2c1Cc1cccc(C(=O)O)n1` (stereo not shown) [Example 16-107, 6-(2-sec-butyl-5-chloro-6-methoxy-1H-indol-3-ylmethyl)pyridine-2-carboxylic acid] is 1.5-fold higher in IC50: 0.026 µM for the first, 0.04 µM for the second.

`COc1cc2[nH]c(C(C)C)c(Cc3cccc(C(=O)O)n3)c2cc1F` [Example 18-1, 6-(5-fluoro-2-isopropyl-6-methoxy-1H-indol-3-ylmethyl)pyridine-2-carboxylic acid] showed an IC50 of 0.039 µM.

`Cc1cc2c(Cc3cccc(C(=O)O)n3)c(-c3ccccc3)[nH]c2cc1C1CC1` [Example 16-100, 6-(6-cyclopropyl-5-methyl-2-phenyl-1H-indol-3-ylmethyl)pyridine-2-carboxylic acid] was tested, and the IC50 was 0.044 µM and 0.026 µM.
